In ChEMBL document CHEMBL1201862, “PubChem BioAssay data set” (2004):
The source made the active and inactive calls.

Columns and labels:
Format in all cases: functional
cells = experiment: cells
[1] = THP-1 cell cytotoxicity, dose response, cytotoxicity control for non-replicating M. tuberculosis project (AID 489025)
[2] = target: T1, High affinity choline transporter 1 (Homo sapiens, UniProt Q9GZV3); experiment: CHT activators, dose response, cell-based, 10-point CRC, membrane potential dye (AID 602376)
T1 sequence (Q9GZV3 whole entry): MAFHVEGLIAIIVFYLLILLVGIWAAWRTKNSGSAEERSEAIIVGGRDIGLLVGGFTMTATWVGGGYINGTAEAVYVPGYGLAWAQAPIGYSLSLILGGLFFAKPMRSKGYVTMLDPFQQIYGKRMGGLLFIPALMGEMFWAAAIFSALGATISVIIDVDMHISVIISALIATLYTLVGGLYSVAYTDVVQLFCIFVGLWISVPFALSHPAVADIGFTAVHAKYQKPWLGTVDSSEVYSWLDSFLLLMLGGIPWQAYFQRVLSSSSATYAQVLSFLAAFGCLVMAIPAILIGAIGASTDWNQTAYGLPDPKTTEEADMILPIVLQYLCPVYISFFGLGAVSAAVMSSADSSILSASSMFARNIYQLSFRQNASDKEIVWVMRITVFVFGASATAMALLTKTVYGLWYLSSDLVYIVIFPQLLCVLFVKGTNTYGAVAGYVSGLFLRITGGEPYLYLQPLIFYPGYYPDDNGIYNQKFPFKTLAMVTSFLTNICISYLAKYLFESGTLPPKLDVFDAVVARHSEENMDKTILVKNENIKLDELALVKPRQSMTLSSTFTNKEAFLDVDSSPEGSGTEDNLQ

[3] = nonselective inhibitors of cellular cAMP signaling, dose response, counter-screen for MC4R biased antagonist project, cell-based, TR-FRET cAMP detection (AID 602305);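 further: U2OS cells stimulated with forskolin near its EC80 as the cAMP inducer; potency is for inhibition of forskolin-stimulated cAMP signaling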
Melanocortin receptor 4 = Melanocortin receptor 4 (Homo sapiens, UniProt P32245); experiment: MC4R antagonist potency on cAMP, dose response, cell-based, TR-FRET, biased antagonists (AID 602298);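 further: antagonist potency against agonist-stimulated cAMP production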
Orexin receptor type 2 [4] = target: T2, Orexin receptor type 2 (Homo sapiens, UniProt O43614); experiment: Counterscreen assay for antagonists of the orexin 1 receptor (OX1R; HCRTR1): Homogeneous Time Resolved Fluorescence (HTRF)-based cell-based dose response assay for antagonists of the orexin 2 receptor (OX2R; HCRTR2), run by assay provider.
T2 sequence (O43614 whole entry): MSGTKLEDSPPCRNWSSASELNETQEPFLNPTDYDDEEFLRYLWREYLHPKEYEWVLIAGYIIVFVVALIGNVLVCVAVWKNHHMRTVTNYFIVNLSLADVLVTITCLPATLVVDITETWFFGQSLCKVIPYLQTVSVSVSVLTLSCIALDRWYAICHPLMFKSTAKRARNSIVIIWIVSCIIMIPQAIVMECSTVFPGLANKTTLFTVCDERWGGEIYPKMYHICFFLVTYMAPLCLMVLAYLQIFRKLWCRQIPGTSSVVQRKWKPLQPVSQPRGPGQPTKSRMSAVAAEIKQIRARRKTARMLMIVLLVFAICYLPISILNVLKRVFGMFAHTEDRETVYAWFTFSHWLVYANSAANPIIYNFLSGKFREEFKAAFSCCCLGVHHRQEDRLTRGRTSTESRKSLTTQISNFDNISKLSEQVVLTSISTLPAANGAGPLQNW

[5] = target: T3, Orexin/Hypocretin receptor type 1 (Homo sapiens, UniProt O43613); experiment: (§1) Fluorescence-based cell-based high throughput dose response assay for antagonists of the orexin 1 receptor (OX1R; HCRTR1). [Related pubchem assays (depositor defined):AID434989, AID435008, AID463079, AID485270, AID492963, AID492964, AID492965, AID493232, AID504717, AID504718]
T3 sequence (O43613 whole entry): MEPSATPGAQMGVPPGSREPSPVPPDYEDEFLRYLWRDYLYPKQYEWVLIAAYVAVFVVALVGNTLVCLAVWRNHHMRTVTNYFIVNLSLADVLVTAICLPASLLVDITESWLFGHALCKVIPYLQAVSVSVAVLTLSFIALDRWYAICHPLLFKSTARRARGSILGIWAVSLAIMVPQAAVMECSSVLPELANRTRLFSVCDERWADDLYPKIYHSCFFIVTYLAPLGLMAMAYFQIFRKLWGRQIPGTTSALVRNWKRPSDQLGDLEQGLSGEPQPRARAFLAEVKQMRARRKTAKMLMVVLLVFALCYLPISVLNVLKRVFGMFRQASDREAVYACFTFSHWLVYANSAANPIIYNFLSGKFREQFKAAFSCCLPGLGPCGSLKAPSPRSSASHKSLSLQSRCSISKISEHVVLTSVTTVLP

CHO-K1 = experiment: (§2) Counterscreen for antagonists of the orexin 1 receptor (OX1R; HCRTR1): Homogeneous time resolved fluorescence (HTRF)-based cell-based dose response assay to identify antagonists of the parental CHO-K1 cell line. [Related pubchem assays (depositor defined):AID434989, AID435008, AID463079, AID485270, AID492963, AID492964, AID492965, AID493232, AID504699, AID504701]; details: Cricetulus griseus
[6] = as §2, with “Fluorescence-based” for “Homogeneous time resolved fluorescence (HTRF)-based”, “cell-based high throughput” for “cell-based”, “CHO” for “CHO-K1”
[7] = target: T3, Orexin/Hypocretin receptor type 1; experiment: as §1, with “Homogeneous Time Resolved Fluorescence (HTRF)-based” for “Fluorescence-based”
Orexin receptor type 2 [8] = target: T2, Orexin receptor type 2; experiment: Counterscreen assay for antagonists of the orexin 1 receptor (OX1R; HCRTR1): Fluorescence-based cell-based dose response assay for antagonists of the orexin 2 receptor (OX2R; HCRTR2), run by assay provider.
[9] = target: DNA dC->dU-editing enzyme APOBEC-3G (Homo sapiens, UniProt Q9HC16); experiment: APOBEC3G deaminase inhibitors, SAR follow-up, biochemical, fluorescence, single-stranded DNA substrate (AID 602136); details: read-out: IC50_Mean
[10] = target: DNA dC->dU-editing enzyme APOBEC-3A (Homo sapiens, UniProt P31941); experiment: SAR analysis of small molecule inhibitors of APOBEC3A DNA Deaminase via a fluorescence-based single-stranded DNA deaminase assay.; details: read-out: IC50_Mean
Caspase-3 = target: T4, Caspase-3 (Homo sapiens, UniProt P42574); experiment: SAR Analysis of small molecule inhibitors of Sentrin-specific proteases (SENPs) using a Caspase-3 Selectivity assay. [Related pubchem assays (depositor defined):AID2540, AID2599, AID434973, AID489001]
T4 sequence (P42574 whole entry): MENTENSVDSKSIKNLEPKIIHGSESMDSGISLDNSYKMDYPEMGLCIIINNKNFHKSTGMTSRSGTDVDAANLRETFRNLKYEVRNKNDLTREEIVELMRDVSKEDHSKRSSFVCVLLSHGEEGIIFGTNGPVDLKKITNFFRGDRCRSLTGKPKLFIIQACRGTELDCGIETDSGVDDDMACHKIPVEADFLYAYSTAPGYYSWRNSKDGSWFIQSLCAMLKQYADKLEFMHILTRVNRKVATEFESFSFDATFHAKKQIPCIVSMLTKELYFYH

[11] = target: T5, Sentrin-specific protease 6 (Homo sapiens, UniProt Q9GZR1); experiment: SAR Analysis of small molecule inhibitors of Sentrin-specific protease 6 (SENP6) using a Luminescent assay. [Related pubchem assays (depositor defined):AID2582, AID2599]
T5 sequence (Q9GZR1 whole entry): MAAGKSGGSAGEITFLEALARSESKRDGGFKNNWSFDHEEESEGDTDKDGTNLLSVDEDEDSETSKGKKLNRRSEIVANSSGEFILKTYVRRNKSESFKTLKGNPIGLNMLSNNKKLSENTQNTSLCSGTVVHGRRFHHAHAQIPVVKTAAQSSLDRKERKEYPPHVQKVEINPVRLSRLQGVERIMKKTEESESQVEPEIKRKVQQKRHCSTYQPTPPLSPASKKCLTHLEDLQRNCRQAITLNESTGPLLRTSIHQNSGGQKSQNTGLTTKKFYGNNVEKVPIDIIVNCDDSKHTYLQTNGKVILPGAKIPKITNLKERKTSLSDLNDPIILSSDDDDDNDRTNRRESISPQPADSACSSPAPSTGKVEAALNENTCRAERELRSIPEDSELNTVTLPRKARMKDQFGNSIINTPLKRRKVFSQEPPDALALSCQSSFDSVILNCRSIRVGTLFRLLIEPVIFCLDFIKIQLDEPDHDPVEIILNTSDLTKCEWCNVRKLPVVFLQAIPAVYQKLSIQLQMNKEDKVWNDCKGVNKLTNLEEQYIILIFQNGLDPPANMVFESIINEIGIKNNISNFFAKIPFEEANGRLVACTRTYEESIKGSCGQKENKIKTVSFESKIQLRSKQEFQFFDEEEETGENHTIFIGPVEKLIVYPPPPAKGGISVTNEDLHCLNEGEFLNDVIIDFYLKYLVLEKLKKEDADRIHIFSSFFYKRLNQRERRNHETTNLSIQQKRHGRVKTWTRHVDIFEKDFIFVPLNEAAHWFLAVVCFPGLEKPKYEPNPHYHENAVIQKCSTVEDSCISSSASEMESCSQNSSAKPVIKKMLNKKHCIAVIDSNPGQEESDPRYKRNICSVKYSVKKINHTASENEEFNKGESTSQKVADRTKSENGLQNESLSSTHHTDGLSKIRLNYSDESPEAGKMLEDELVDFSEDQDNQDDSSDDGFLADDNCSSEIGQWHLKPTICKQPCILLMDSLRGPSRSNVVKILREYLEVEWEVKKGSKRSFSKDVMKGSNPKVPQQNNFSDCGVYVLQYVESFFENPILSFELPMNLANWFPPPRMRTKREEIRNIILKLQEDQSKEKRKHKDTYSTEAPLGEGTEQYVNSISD

[12] = target: T6, Sentrin-specific protease 7 (Homo sapiens, UniProt Q9BQF6); experiment: SENP7 protease inhibitors, SAR follow-up, biochemical, luminescence (AID 504497)
T6 sequence (Q9BQF6 whole entry): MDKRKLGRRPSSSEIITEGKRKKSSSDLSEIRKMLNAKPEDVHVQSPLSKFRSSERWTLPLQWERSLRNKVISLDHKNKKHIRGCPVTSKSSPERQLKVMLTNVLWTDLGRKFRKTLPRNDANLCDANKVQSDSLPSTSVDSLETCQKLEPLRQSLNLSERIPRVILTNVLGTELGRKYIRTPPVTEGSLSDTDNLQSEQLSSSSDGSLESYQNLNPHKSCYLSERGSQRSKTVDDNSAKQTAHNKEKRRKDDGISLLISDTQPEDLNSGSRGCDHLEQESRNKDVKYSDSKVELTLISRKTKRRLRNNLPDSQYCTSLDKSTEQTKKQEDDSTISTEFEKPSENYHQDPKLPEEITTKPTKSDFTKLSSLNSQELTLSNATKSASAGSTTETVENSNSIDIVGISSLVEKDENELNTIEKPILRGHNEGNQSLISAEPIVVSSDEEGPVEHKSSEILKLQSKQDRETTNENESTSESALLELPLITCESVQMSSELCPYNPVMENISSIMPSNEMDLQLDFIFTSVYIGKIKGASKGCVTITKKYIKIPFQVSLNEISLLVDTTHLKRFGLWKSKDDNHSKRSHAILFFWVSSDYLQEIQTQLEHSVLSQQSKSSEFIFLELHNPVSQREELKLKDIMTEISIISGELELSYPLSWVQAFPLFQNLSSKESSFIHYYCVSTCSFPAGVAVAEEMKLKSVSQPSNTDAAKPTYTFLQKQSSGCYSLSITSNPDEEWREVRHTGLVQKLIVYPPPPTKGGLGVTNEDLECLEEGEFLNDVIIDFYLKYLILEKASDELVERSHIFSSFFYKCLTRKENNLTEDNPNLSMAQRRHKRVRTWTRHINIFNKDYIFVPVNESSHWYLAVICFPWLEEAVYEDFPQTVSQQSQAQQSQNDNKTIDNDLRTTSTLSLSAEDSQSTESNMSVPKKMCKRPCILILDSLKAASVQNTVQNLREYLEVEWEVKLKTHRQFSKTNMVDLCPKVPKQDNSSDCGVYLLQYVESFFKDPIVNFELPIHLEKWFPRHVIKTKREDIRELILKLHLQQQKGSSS

[13] = target: T7, Sentrin-specific protease 8 (Homo sapiens, UniProt Q96LD8); experiment: SENP8 protease inhibitors, SAR follow-up, biochemical, luminescence (AID 504501)
T7 sequence (Q96LD8 whole entry): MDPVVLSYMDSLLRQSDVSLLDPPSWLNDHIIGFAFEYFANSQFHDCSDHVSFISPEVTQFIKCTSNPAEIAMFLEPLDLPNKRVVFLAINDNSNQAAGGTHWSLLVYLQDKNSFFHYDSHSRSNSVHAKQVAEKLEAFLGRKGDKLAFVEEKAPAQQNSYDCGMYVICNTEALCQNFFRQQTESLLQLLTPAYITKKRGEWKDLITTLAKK

Chain of Melanocortin receptor 4 (P32245 whole entry): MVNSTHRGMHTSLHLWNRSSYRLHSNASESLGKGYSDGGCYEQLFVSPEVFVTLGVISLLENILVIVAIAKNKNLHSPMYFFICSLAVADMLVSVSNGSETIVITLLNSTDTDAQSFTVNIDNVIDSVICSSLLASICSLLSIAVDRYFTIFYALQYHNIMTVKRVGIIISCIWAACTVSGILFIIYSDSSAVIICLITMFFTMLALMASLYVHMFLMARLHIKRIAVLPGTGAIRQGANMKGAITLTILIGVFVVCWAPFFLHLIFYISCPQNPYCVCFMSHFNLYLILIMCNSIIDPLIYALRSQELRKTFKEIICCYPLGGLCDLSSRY
Chain of DNA dC->dU-editing enzyme APOBEC-3A (P31941 whole entry): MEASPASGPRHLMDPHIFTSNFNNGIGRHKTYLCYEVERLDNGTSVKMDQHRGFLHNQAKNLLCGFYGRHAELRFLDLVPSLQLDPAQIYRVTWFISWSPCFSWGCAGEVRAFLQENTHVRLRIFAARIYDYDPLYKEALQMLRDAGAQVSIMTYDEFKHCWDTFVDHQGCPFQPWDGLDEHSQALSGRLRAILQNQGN
Chain of DNA dC->dU-editing enzyme APOBEC-3G (Q9HC16 whole entry): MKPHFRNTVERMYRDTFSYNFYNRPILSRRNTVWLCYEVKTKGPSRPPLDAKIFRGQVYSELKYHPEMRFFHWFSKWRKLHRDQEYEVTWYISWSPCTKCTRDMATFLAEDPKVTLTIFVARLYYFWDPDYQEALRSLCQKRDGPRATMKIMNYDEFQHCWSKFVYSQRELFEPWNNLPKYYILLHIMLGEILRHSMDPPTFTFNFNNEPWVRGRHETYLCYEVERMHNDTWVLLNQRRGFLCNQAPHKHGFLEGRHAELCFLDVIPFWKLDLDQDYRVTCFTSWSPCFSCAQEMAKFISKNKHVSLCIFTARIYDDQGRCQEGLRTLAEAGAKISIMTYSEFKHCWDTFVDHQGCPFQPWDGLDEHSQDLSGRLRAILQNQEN

## c1coc(CNc2nc(N3CCCCC3)nc3ccccc23)c1
cells
  IC50: 6.64 µM (active)
[1]
  CC50: 19.6 µM (active)
[2]
  EC50: 1.79 µM (active)

## CN(c1ccc(OCC(=O)OCC(=O)Nc2ccc(Br)cc2)cc1)S(=O)(=O)c1cccs1
[3]
  IC50: > 64.6 µM (inactive)
Melanocortin receptor 4
  IC50: > 64.6 µM (inactive)

## O=C(OCC#CCSc1nnc(-c2cccc3ccccc23)o1)c1cccc2[nH]ccc12
Orexin receptor type 2 [4]
  IC50: 1.39 µM (active)
[5]
  IC50: 14 µM (inactive)
CHO-K1
  IC50: > 66.2 µM (inactive)
[6]
  IC50: > 49.8 µM (inactive)
[7]
  IC50: 0.506 µM (active)
Orexin receptor type 2 [8]
  IC50: > 88.8 µM (inactive)

## CS(=O)(=O)N1CCC(C(=O)Nc2cc(C(F)(F)F)ccc2N2CCOCC2)CC1
[9]
  IC50: > 99 µM (inactive)
[10]
  IC50: > 99 µM (inactive)

## CCOc1ccc(C(=O)Nc2ccc3ccccc3c2)cc1Cl
Caspase-3
  IC50: > 99 µM (inactive)
[11]
  IC50: > 99 µM (inactive)
[12]
  IC50: > 99 µM (inactive)
[13]
  IC50: > 99 µM (inactive)

## O=C(NCCCN1CCN(CCCNC(=O)c2cccc(Cl)c2)CC1)c1cccc(Cl)c1
[2]
  EC50: 9.44 µM (active)

## COc1cccc(/C=N/NC(=O)c2nnn(-c3nonc3N)c2CN(C)c2ccccc2)c1
Orexin receptor type 2 [4]
  IC50: 5.39 µM (active)
[5]
  IC50: 5.95 µM (active)
CHO-K1
  IC50: > 66.2 µM (inactive)
[6]
  IC50: > 49.7 µM (inactive)
[7]
  IC50: 0.513 µM (active)
Orexin receptor type 2 [8]
  IC50: > 88.8 µM (inactive)
